melting point: 162 °C
Compound: CCOc1nn(C(=O)NS(=O)(=O)c2c(C(=O)N(C)C)csc2C)c(=O)n1C [Example 1, 5-ethoxy-4-methyl-2-[(4-dimethylaminocarbonyl-2-methylthien-3-yl)sulfonylaminocarbonyl]-2,4-dihydro-3H-1,2,4-triazol-3-one]

Source: patent US20080171662A1, “Aminocarbonyl-Substituted Thiensulfonylamino(Thio)Carbonyl-Triazolin(Ethi)Ones, Processes For Their Preparation And Their Use” (priority 2004, published 2008)
